The record followed here is patent US6579536B1, “Sustained-release pharmaceutical preparation containing tilidine mesylate as active ingredient” (Hexal AG, priority 1998, dated 2003).

This data set in a line: Stability of tilidine mesylate in solid form, in combination with solid additives.

For the substance tilidine mesylate, the “decomposition in the solid form (stability)” value is reported as “virtually does not undergo any decomposition”.
